# Measurements: publication PMC10432605 (Blood Advances, 2023)
# Several values for one entry are separate records, joined by “and”; a condition that tells them apart may be missing. Equal entries are not always repeated. Entries after “also recorded” stand apart in the source; their conditions may differ. Where two headings read alike, the source gives them in different places.
# Key:
# patients with r/r MCL [1] = test: phase 1/2 study efficacy; format: in vivo, human
# patients with r/r MCL [2] = test: phase 1/2 study safety; format: in vivo, human
# [3] = pharmacokinetics in patients with r/r MCL
# patients with r/r MCL [4] = details: cited from earlier work
# patients = details: cited from earlier work
# [5] = 29 patients with best response CR
# [6] = IRC-assessed, n=106, follow-up 23.8 mo
# [7] = Investigator-assessed, n=106, follow-up 23.8 mo
# [8] = PET assessment, median follow-up 18.4 months
# [9] = ref 10 (ibrutinib), 14 (acalabrutinib), 15 (zanubrutinib)
smiles,measurement,setting,value
C=CC(=O)N1CCC(c2ccc(C(N)=O)c(-c3ccc(Oc4ccccc4)cc3)n2)CC1 [orelabrutinib],DOR rate at 24 months,patients with r/r MCL [1]; [5],~80%
same,OS at 24 months,patients with r/r MCL [1]; [5],~100%
same,PFS rate at 24 months,patients with r/r MCL [1]; [5],~80%
same,median reduction percentage in the SPD of target lesions,"patients with r/r MCL [1]; CT/MRI, baseline median SPD 2514.4 mm^2",87.2%
same,patients with objective response,"patients with r/r MCL [1]; IRC assessment, n=106",86 patients
same,median DOR,patients with r/r MCL [1]; IRC-assessed,22.9 months
same,CR,patients with r/r MCL [1]; [6],27.4%
same,DCR,patients with r/r MCL [1]; [6],86.8 (78.8-92.6) %
same,PD,patients with r/r MCL [1]; [6],8.5%
same,PR,patients with r/r MCL [1]; [6],53.8%
same,ORR,"patients with r/r MCL [1]; IRC-assessed, n=106, median follow-up 23.8 mo",81.1 (72.4-88.1) %
same,CR,"patients with r/r MCL [1]; IRC, follow-up 10.5 mo",25.5%
same,CR,patients with r/r MCL [1]; [7],34.9%
same,DCR,patients with r/r MCL [1]; [7],87.7 (79.9-93.3) %
same,ORR,patients with r/r MCL [1]; [7],82.1 (73.4-88.9) %
same,PD,patients with r/r MCL [1]; [7],5.7%
same,PR,patients with r/r MCL [1]; [7],47.2%
same,median PFS,patients with r/r MCL [1]; full analysis set,22.0 months and 22 months
same,patients with objective response,"patients with r/r MCL [1]; investigator assessment, n=106",87 patients
same,median TTR,patients with r/r MCL [1]; n=106,1.9 months
same,"ORR (95% CI), IRC",patients with r/r MCL [1]; subgroup Age ≥65,83.3%
same,"ORR (95% CI), IRC",patients with r/r MCL [1]; subgroup Baseline Splenomegaly Yes,66.7%
same,"ORR (95% CI), IRC",patients with r/r MCL [1]; subgroup Ki-67 ≥30%,79.4%
same,"ORR (95% CI), IRC",patients with r/r MCL [1]; subgroup Prior CD20 Antibody Therapy No,91.7%
same,"ORR (95% CI), IRC",patients with r/r MCL [1]; subgroup Prior lines of therapy ≥2,75.9%
same,"ORR (95% CI), IRC",patients with r/r MCL [1]; subgroup Tumor Stage III/IV,80%
same,"ORR (95% CI), IRC",patients with r/r MCL [1]; subgroup longest target lesion ≥10 cm (bulky disease),81.8%
same,"atrial fibrillation, grade 1","patients with r/r MCL [2]; cycle 1, deemed unrelated to treatment",1 episode
same,AEs leading to discontinuation of treatment,patients with r/r MCL [2]; n=106,4.7%
same,Alanine aminotransferase increase (any grade): Incidence,patients with r/r MCL [2]; n=106,10.4%
same,Alanine aminotransferase increase (any grade): Number of patients,patients with r/r MCL [2]; n=106,11
same,All TEAEs: Incidence,patients with r/r MCL [2]; n=106,95.3%
same,All TEAEs: Number of patients,patients with r/r MCL [2]; n=106,101
same,All grade ≥3 TEAEs: Incidence,patients with r/r MCL [2]; n=106,51.9%
same,All grade ≥3 TEAEs: Number of patients,patients with r/r MCL [2]; n=106,55
same,Anemia (any grade): Incidence,patients with r/r MCL [2]; n=106,19.8%
same,Anemia (any grade): Number of patients,patients with r/r MCL [2]; n=106,21
same,Anemia (grade ≥3): Incidence,patients with r/r MCL [2]; n=106,7.5%
same,Anemia (grade ≥3): Number of patients,patients with r/r MCL [2]; n=106,8
same,Cough (any grade): Incidence,patients with r/r MCL [2]; n=106,16.0%
same,Cough (any grade): Number of patients,patients with r/r MCL [2]; n=106,17
same,Diarrhea (any grade): Incidence,patients with r/r MCL [2]; n=106,11.3%
same,Diarrhea (any grade): Number of patients,patients with r/r MCL [2]; n=106,12
same,Disease progression (grade ≥3 AE): Incidence,patients with r/r MCL [2]; n=106,4.7%
same,Disease progression (grade ≥3 AE): Number of patients,patients with r/r MCL [2]; n=106,5
same,Grade 3 or higher infection events,patients with r/r MCL [2]; n=106,14.2%
same,Hematuria (any grade): Incidence,patients with r/r MCL [2]; n=106,10.4%
same,Hematuria (any grade): Number of patients,patients with r/r MCL [2]; n=106,11
same,Hyperglycemia (any grade): Incidence,patients with r/r MCL [2]; n=106,12.3%
same,Hyperglycemia (any grade): Number of patients,patients with r/r MCL [2]; n=106,13
same,Hypertension (any grade): Incidence,patients with r/r MCL [2]; n=106,17%
same,Hypertension (any grade): Number of patients,patients with r/r MCL [2]; n=106,18
same,Hypertension (grade ≥3): Incidence,patients with r/r MCL [2]; n=106,5.7%
same,Hypertension (grade ≥3): Number of patients,patients with r/r MCL [2]; n=106,6
same,Hypoalbuminemia (any grade): Incidence,patients with r/r MCL [2]; n=106,10.4%
same,Hypoalbuminemia (any grade): Number of patients,patients with r/r MCL [2]; n=106,11
same,Hypokalemia (any grade): Incidence,patients with r/r MCL [2]; n=106,17.0%
same,Hypokalemia (any grade): Number of patients,patients with r/r MCL [2]; n=106,18
same,Hypokalemia (grade ≥3): Incidence,patients with r/r MCL [2]; n=106,2.8%
same,Hypokalemia (grade ≥3): Number of patients,patients with r/r MCL [2]; n=106,3
same,Leukocytosis (grade ≥3): Incidence,patients with r/r MCL [2]; n=106,3.8%
same,Leukocytosis (grade ≥3): Number of patients,patients with r/r MCL [2]; n=106,4
same,Leukopenia (any grade): Incidence,patients with r/r MCL [2]; n=106,19.8%
same,Leukopenia (any grade): Number of patients,patients with r/r MCL [2]; n=106,21
same,Lymphocytosis (grade ≥3): Incidence,patients with r/r MCL [2]; n=106,3.8%
same,Lymphocytosis (grade ≥3): Number of patients,patients with r/r MCL [2]; n=106,4
same,Neutropenia (any grade): Incidence,patients with r/r MCL [2]; n=106,24.5%
same,Neutropenia (any grade): Number of patients,patients with r/r MCL [2]; n=106,26
same,Neutropenia (grade ≥3): Incidence,patients with r/r MCL [2]; n=106,8.5%
same,Neutropenia (grade ≥3): Number of patients,patients with r/r MCL [2]; n=106,9
same,Pneumonia (any grade): Incidence,patients with r/r MCL [2]; n=106,11.3%
same,Pneumonia (any grade): Number of patients,patients with r/r MCL [2]; n=106,12
same,Pneumonia (grade ≥3): Incidence,patients with r/r MCL [2]; n=106,5.7%
same,Pneumonia (grade ≥3): Number of patients,patients with r/r MCL [2]; n=106,6
same,Pneumonitis (any grade): Incidence,patients with r/r MCL [2]; n=106,17.9%
same,Pneumonitis (any grade): Number of patients,patients with r/r MCL [2]; n=106,19
same,Pneumonitis (grade ≥3): Incidence,patients with r/r MCL [2]; n=106,3.8%
same,Pneumonitis (grade ≥3): Number of patients,patients with r/r MCL [2]; n=106,4
same,Prolonged QT interval (any grade): Incidence,patients with r/r MCL [2]; n=106,11.3%
same,Prolonged QT interval (any grade): Number of patients,patients with r/r MCL [2]; n=106,12
same,Pyrexia (any grade): Incidence,patients with r/r MCL [2]; n=106,12.3%
same,Pyrexia (any grade): Number of patients,patients with r/r MCL [2]; n=106,13
same,Rash (any grade): Incidence,patients with r/r MCL [2]; n=106,17.0%
same,Rash (any grade): Number of patients,patients with r/r MCL [2]; n=106,18
same,SAE Pneumonia: Incidence,patients with r/r MCL [2]; n=106,5.7%
same,SAE Pneumonitis: Incidence,patients with r/r MCL [2]; n=106,4.7%
same,SAE Progressive disease: Incidence,patients with r/r MCL [2]; n=106,4.7%
same,Soft tissue infection (grade ≥3): Incidence,patients with r/r MCL [2]; n=106,2.8%
same,Soft tissue infection (grade ≥3): Number of patients,patients with r/r MCL [2]; n=106,3
same,Thrombocytopenia (any grade): Incidence,patients with r/r MCL [2]; n=106,34.0%
same,Thrombocytopenia (any grade): Number of patients,patients with r/r MCL [2]; n=106,36
same,Thrombocytopenia (grade ≥3): Incidence,patients with r/r MCL [2]; n=106,13.2%
same,Thrombocytopenia (grade ≥3): Number of patients,patients with r/r MCL [2]; n=106,14
same,Upper respiratory tract infection (any grade): Incidence,patients with r/r MCL [2]; n=106,27.4%
same,Upper respiratory tract infection (any grade): Number of patients,patients with r/r MCL [2]; n=106,29
same,Weight increase (any grade): Incidence,patients with r/r MCL [2]; n=106,11.3%
same,Weight increase (any grade): Number of patients,patients with r/r MCL [2]; n=106,12
same,bleeding events (any),patients with r/r MCL [2]; n=106,34.9%
same,bleeding events grade 1,patients with r/r MCL [2]; n=106,31.1%
same,bleeding events grade 2,patients with r/r MCL [2]; n=106,3.8%
same,death from infection due to acute myeloid leukemia,patients with r/r MCL [2]; n=106,1%
same,death from lung infection due to the common cold,patients with r/r MCL [2]; n=106,1%
same,deaths due to drug-related AEs (fatal TRAEs),patients with r/r MCL [2]; n=106,no fatal TRAEs were reported; also recorded: No deaths due to drug-related AEs were reported
same,deaths from AEs deemed unrelated to treatment,patients with r/r MCL [2]; n=106,2%
same,deaths from disease progression,patients with r/r MCL [2]; n=106,15%
same,diarrhea judged as related to treatment,patients with r/r MCL [2]; n=106,3.8%
same,discontinued treatment because of drug-related AEs,patients with r/r MCL [2]; n=106,2.8%
same,drug-related grade 3 or higher infection events,patients with r/r MCL [2]; n=106,6.6%
same,drug-related infection events,patients with r/r MCL [2]; n=106,34%
same,drug-related pneumonia,patients with r/r MCL [2]; n=106,7.5%
same,drug-related upper respiratory tract infection,patients with r/r MCL [2]; n=106,13.2%
same,"grade 3 or higher second primary malignancy, atrial fibrillation/flutter, diarrhea, or bleeding events",patients with r/r MCL [2]; n=106,"No grade 3 or higher second primary malignancy, atrial fibrillation/flutter, diarrhea, or bleeding events were observed"
same,"major hemorrhage (grade 3 or higher, serious, or any grade CNS bleeding)",patients with r/r MCL [2]; n=106,No patient experienced major hemorrhage
same,microscopic hematuria,patients with r/r MCL [2]; n=106,6.6%
same,patients who died during the study,patients with r/r MCL [2]; n=106,27 patients
same,patients with treatment-related grade 3 or higher AEs,patients with r/r MCL [2]; n=106,34.9%
same,petechiae,patients with r/r MCL [2]; n=106,4.7%
same,proportion of AEs that were grade 1 or 2,patients with r/r MCL [2]; n=106,89%
same,purpura,patients with r/r MCL [2]; n=106,4.7%
same,rate of second malignancy,patients with r/r MCL [2]; n=106,2.8%
same,second primary malignancy,patients with r/r MCL [2]; n=106,3 patients
same,treatment-related AEs leading to dose interruption,patients with r/r MCL [2]; n=106,17%
same,treatment-related anemia,patients with r/r MCL [2]; n=106,14.2%
same,treatment-related decreases in neutrophils,patients with r/r MCL [2]; n=106,22.6%
same,treatment-related decreases in platelets,patients with r/r MCL [2]; n=106,32.1%
same,treatment-related decreases in white blood cells,patients with r/r MCL [2]; n=106,18.9%
same,treatment-related hypertension,patients with r/r MCL [2]; n=106,15.1%
same,Tmax,"[3]; human, in vivo, 150 mg, Tmax (median, minimum-maximum), Day 1 single, 150 mg",2 h
same,Coefficients of variation of pharmacokinetic parameters,[3]; patients with r/r MCL,< 30%
C=CC(=O)N1CCC([C@@H]2CCNc3c(C(N)=O)c(-c4ccc(Oc5ccccc5)cc4)nn32)CC1 [zanubrutinib],CR,patients with r/r MCL [4]; [8],68.6%
same,ORR,patients with r/r MCL [4]; [8],84%
same,median TTR,patients with r/r MCL [4],2.8 months
same,median DOR,patients with r/r MCL [4]; zanubrutinib trial,19.5 months
same,median PFS,patients with r/r MCL [4]; zanubrutinib trial,22.1 months
same,major hemorrhage,patients,5.4%
same,rate of treatment discontinuation,patients,12.5%
same,incidence of diarrhea,patients; [9],23%
same,incidence of second malignancy,patients; [9],14%
